Source: patent publication US9204640B2, “2-acyloxy-pyrrolin-4-ones” (BAYER INTELLECTUAL PROPERTY GMBH, priority 2011, dated 2015)

Tests used:
Format in all cases: in vivo
Tetranychus urticae = experiment: Tetranychus test (TETRUR spray treatment; OP-resistant in Example 10)
Experimental: Tetranychus Test (TETRUR Spray Treatment)
To produce a suitable preparation of active compound, 1 part by weight of active compound is mixed with the stated amount of solvent and emulsifier, and the concentrate is diluted with emulsifier-containing water to the desired concentration. Discs of bean leaves (Phaseolus vulgaris) which are infested by all stages of the greenhouse red spider mite (Tetranychus urticae) are sprayed with an active compound preparation of the desired concentration.
After 5 days, the effect in % is determined. 100% means that all of the spider mites have been killed; 0% means that none of the spider mites have been killed.
Tetranychus Test, OP-Resistant (TETRUR Spray Treatment)
To produce a suitable preparation of active compound, 1 part by weight of active compound is mixed with the stated amount of solvent and emulsifier, and the concentrate is diluted with emulsifier-containing water to the desired concentration.
Discs of bean leaves (Phaseolus vulgaris) which are infested by all stages of the greenhouse red spider mite (Tetranychus urticae) are sprayed with an active compound preparation of the desired concentration.
After the desired period of time, the activity in % is determined. 100% means that all of the spider mites have been killed; 0% means that none of the spider mites have been killed.

Spodoptera frugiperda = Spodoptera frugiperda test (SPODFR spray treatment)
Experimental: Spodoptera Frugiperda Test (SPODFR Spray Treatment) [table] To produce a suitable preparation of active compound, 1 part by weight of active compound is mixed with the stated amount of solvent and emulsifier, and the concentrate is diluted with emulsifier-containing water to the desired concentration. Discs of corn leaves (Zea mays) are sprayed with an active compound preparation of the desired concentration and, after drying, populated with caterpillars of the armyworm (Spodoptera frugiperda). After 7 days, the effect in % is determined. 100% means that all caterpillars have been killed; 0% means that none of the caterpillars have been killed. Spodoptera Frugiperda Test (SPODFR Spray Treatment) To produce a suitable preparation of active compound, 1 part by weight of active compound is mixed with the stated amount of solvent and emulsifier, and the concentrate is diluted with emulsifier-containing water to the desired concentration. Discs of corn leaves (Zea mays) are sprayed with an active compound preparation of the desired concentration and, after drying, populated with caterpillars of the armyworm (Spodoptera frugiperda). After the desired period of time, the activity in % is determined. 100% means that all caterpillars have been killed; 0% means that none of the caterpillars have been killed.

Liriomyza trifolii = Liriomyza trifolii spray test (LIRITR); details: 20 g/ha; 7dat
Experimental: Liriomyza Trifolii-Spray Test ([…]) To produce a suitable preparation of active compound, 1 part by weight of active compound is mixed with the stated amount of solvent and emulsifier, and the concentrate is diluted with emulsifier-containing water to the desired concentration. If the addition of ammonium salts or/and penetrants is required, these are in each case added in a concentration of 1000 ppm to the solution of the preparations. Discs of bean leaves (Phaseolus vulgaris) which are infested by all stages of the leaf-mining fly (Liriomyza trifolii) are sprayed with an active compound preparation of the desired concentration. After the desired period of time, the activity in % is determined. 100% means that all of the leaf-mining flies have been killed; 0% means that none of the leaf-mining flies have been killed.

Bemisia tabaci = Bemisia tabaci spray test (BEMITA); details: 20 g/ha; 7dat
Experimental: Bemisia Tabaci-Spray Test ([…]) To produce a suitable preparation of active compound, 1 part by weight of active compound is mixed with the stated amount of solvent and emulsifier, and the concentrate is diluted with emulsifier-containing water to the desired concentration. Discs of cotton leaves (Gossypium hirsutum) which are infested by all stages of the whitefly (Bemisia tabaci) are sprayed with an active compound preparation of the desired concentration. After the desired period of time, the activity in % is determined. 100% means that all the whiteflies have been killed; 0% means that none of the whiteflies have been killed.

Myzus persicae = experiment: Myzus test (MYZUPE spray treatment); details: application rate 500 g/ha, after 5 days, Chinese cabbage leaf discs
Procedure, shortened: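 Chinese cabbage leaf discs carrying all stages of green peach aphid sprayed with compound diluted in emulsifier-containing water to the desired concentration. Mortality scored as % after 5 days, where 100% means all aphids dead and 0% none.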

Lucilia cuprina larvae = experiment: Lucilia cuprina test (LUCICU); details: 100 ppm, after 2 days
Experimental: Lucilia Cuprina Test (LUCICU) [table] To prepare an appropriate active compound formulation, 10 mg of active compound are mixed with 0.5 ml of dimethyl sulfoxide and the concentrate is diluted with water to the desired concentration. Vessels containing horse meat treated with the active compound preparation of the desired concentration are populated with about 20 Lucilia cuprina larvae. After 2 days, the kill in % is determined. 100% means that all of the larvae have been killed; 0% means that none of the larvae have been killed.

Boophilus microplus = Boophilus microplus test (BOOPMI injection); details: 20 μg/animal, after 7 days
Experimental: Boophilus Microplus Test (BOOPMI Injection) [table] To prepare an appropriate active compound formulation, 10 mg of active compound are mixed with 0.5 ml of solvent and the concentrate is diluted with solvent to the desired concentration. The solution of active compound is injected into the abdomen (Boophilus microplus), and the animals are transferred into dishes and kept in a climatized room. The activity is assessed by deposition of fertile eggs. After 7 days, the effect in % is determined. 100% means that none of the ticks has laid any fertile eggs.

Phaedon cochleariae = experiment: Phaedon test (PHAECO spray treatment); details: application rate 500 g/ha, after 7 days, Chinese cabbage leaf discs
Experimental: Phaedon Test ([…] Spray Treatment) [table] To produce a suitable preparation of active compound, 1 part by weight of active compound is mixed with the stated amount of solvent and emulsifier, and the concentrate is diluted with emulsifier-containing water to the desired concentration. Discs of Chinese cabbage (Brassica pekinensis) are sprayed with an active compound preparation of the desired concentration and, after drying, populated with larvae of the mustard beetle (Phaedon cochleariae). After 7 days, the effect in % is determined 100% means that all beetle larvae have been killed; 0% means that none of the beetle larvae have been killed. Phaedon Test ([…] Spray Treatment) To produce a suitable preparation of active compound, 1 part by weight of active compound is mixed with the stated amount of solvent and emulsifier, and the concentrate is diluted with emulsifier-containing water to the desired concentration. Discs of Chinese cabbage (Brassica pekinensis) are sprayed with an active compound preparation of the desired concentration and, after drying, populated with larvae of the mustard beetle (Phaedon cochleariae). After the desired period of time, the activity in % is determined. 100% means that all beetle larvae have been killed; 0% means that none of the beetle larvae have been killed.

## CCOC(=O)OC1=C(c2c(C)cc(C)cc2C)C(=O)C2(CCC(COC)CC2)N1 (stereo not shown) [I-b-3]
Tetranychus urticae; 20 g/ha, 5dat, OP-resistant
  % Activity TETRUR: 80%
Tetranychus urticae; application rate 100 g/ha, after 5 days, bean leaf discs
  effect in % (spider mites killed): 90%
Spodoptera frugiperda; 500 g/ha, 7dat
  % Activity SPODFR: 100%
Spodoptera frugiperda; application rate 500 g/ha, after 7 days, corn leaf discs
  effect in % (caterpillars killed): 100%
Liriomyza trifolii
  % Activity LIRITRI: 80%
Bemisia tabaci
  % Activity BEMITA: 72%
Myzus persicae
  effect in % (aphids killed): 90%
Lucilia cuprina larvae
  kill in % (larvae): 90%
Boophilus microplus
  efficacy in % (deposition of fertile eggs): 100%
Phaedon cochleariae
  effect in % (beetle larvae killed): 100%
